Several values for one entry are separate records, joined by “and”; a condition that tells them apart may be missing. Equal values may be shown once. Toxic doses and inconclusive results are not listed. No stated cut-off is given here; in the data, active means T/C of 150% or more; inactive means T/C below 125%.
Test system: L1210 leukemia ip in BDF1 mice, survival T/C
Assay: NCI In Vivo Anticancer Drug Screen. Data for tumor model L1210 Leukemia (intraperitoneal) in B6D2F1 (BDF1) mice
Conditions: endpoint: mean survival time, higher = longer survival
In short: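 Each compound was tested against a transplantable tumor grown in mice. The endpoint was survival, with treated animals benchmarked against vehicle controls as a simple ratio.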

[1] = dose: 50.0 mg/kg/injection, schedule: Q01DX001 (ip), vehicle: carboxymethylcellulose (CMC)
[2] = dose: 50.0 mg/kg/injection, schedule: Q01DX009 (ip), vehicle: Klucel (hydroxypropylcellulose) (HPC)
[3] = dose: 100.0 mg/kg/injection, schedule: Q01DX001 (ip), vehicle: carboxymethylcellulose (CMC)
[4] = dose: 100.0 mg/kg/injection, schedule: Q01DX009 (ip), vehicle: Klucel (hydroxypropylcellulose) (HPC)
[5] = dose: 100.0 mg/kg/injection, schedule: Q04DX003 (ip), vehicle: Klucel (hydroxypropylcellulose) (HPC)
[6] = dose: 100.0 mg/kg/injection, schedule: Q04DX003 (ip), vehicle: saline with Tween-80
[7] = dose: 200.0 mg/kg/injection, schedule: Q01DX001 (ip), vehicle: carboxymethylcellulose (CMC)
[8] = dose: 200.0 mg/kg/injection, schedule: Q04DX003 (ip), vehicle: Klucel (hydroxypropylcellulose) (HPC)
[9] = dose: 200.0 mg/kg/injection, schedule: Q04DX003 (ip), vehicle: saline with Tween-80
[10] = dose: 400.0 mg/kg/injection, schedule: Q01DX001 (ip), vehicle: carboxymethylcellulose (CMC)
[11] = dose: 400.0 mg/kg/injection, schedule: Q04DX003 (ip), vehicle: saline with Tween-80
[12] = dose: 100.0 mg/kg/injection, schedule: Q04DX003 (ip), vehicle: saline
[13] = dose: 200.0 mg/kg/injection, schedule: Q04DX003 (ip), vehicle: saline
[14] = dose: 200.0 mg/kg/injection, schedule: Q01DX009 (ip), vehicle: Klucel (hydroxypropylcellulose) (HPC)
[15] = dose: 400.0 mg/kg/injection, schedule: Q01DX009 (ip), vehicle: Klucel (hydroxypropylcellulose) (HPC)
[16] = dose: 400.0 mg/kg/injection, schedule: Q04DX003 (ip), vehicle: Klucel (hydroxypropylcellulose) (HPC)

Measured: T/C

O=C1OC(=O)C2C3C=CC(C3)C12 (stereo not given)
inactive: dose: 12.5 mg/kg/injection, schedule: Q01DX009 (ip), vehicle: saline with Tween-80 97 % of control | dose: 25.0 mg/kg/injection, schedule: Q01DX009 (ip), vehicle: Klucel (hydroxypropylcellulose) (HPC) 100 % of control | dose: 25.0 mg/kg/injection, schedule: Q01DX009 (ip), vehicle: saline with Tween-80 100 % of control | [1] 104 % of control | [2] 96 % of control | dose: 50.0 mg/kg/injection, schedule: Q01DX009 (ip), vehicle: saline with Tween-80 96 % of control | [3] 106 % of control and 96 % of control | [4] 105 % of control and 87 % of control | dose: 100.0 mg/kg/injection, schedule: Q01DX009 (ip), vehicle: saline with Tween-80 90 % of control | [5] 102 % of control | [6] 98 % of control | [7] 104 % of control and 91 % of control | dose: 200.0 mg/kg/injection, schedule: Q01DX009 (ip), vehicle: saline with Tween-80 92 % of control | [8] 89 % of control | [9] 98 % of control | [10] 95 % of control and 96 % of control | dose: 400.0 mg/kg/injection, schedule: Q01DX009 (ip), vehicle: saline with Tween-80 88 % of control | [11] 97 % of control

C/C(CC(=O)N1CCCCC1)=N\NC(N)=S
inactive: [3] 97 % of control | [7] 103 % of control | [10] 94 % of control

O=S(=O)([O-])O.O=S(O)S(=O)O.[Co+3].[NH2-].[NH2-].[NH2-].[NH2-].[NH2-]
inactive: dose: 25.0 mg/kg/injection, schedule: Q04DX002 (ip), vehicle: saline 91 % of control | dose: 50.0 mg/kg/injection, schedule: Q04DX002 (ip), vehicle: saline 97 % of control

C/C=C/C=N/n1c(CCC)nc2ccccc2c1=O
inactive: dose: 100.0 mg/kg/injection, schedule: Q04DX002 (ip), vehicle: Klucel (hydroxypropylcellulose) (HPC) 90 % of control | dose: 200.0 mg/kg/injection, schedule: Q04DX002 (ip), vehicle: Klucel (hydroxypropylcellulose) (HPC) 104 % of control

Cc1nc(N)[nH]c(=O)c1CC(C)O (stereo not given)
inactive: [12] 92 % of control | [13] 100 % of control | dose: 400.0 mg/kg/injection, schedule: Q04DX003 (ip), vehicle: saline 92 % of control

CN(C)C1(C(=O)O)c2ccccc2-c2ccccc21
inactive: dose: 50.0 mg/kg/injection, schedule: Q01DX001 (ip), vehicle: saline 100 % of control | dose: 100.0 mg/kg/injection, schedule: Q01DX001 (ip), vehicle: saline 100 % of control | dose: 200.0 mg/kg/injection, schedule: Q01DX001 (ip), vehicle: saline 97 % of control

O=C1CCCC/C1=C/c1ccc(Cl)cc1
inactive: [4] 95 % of control | [5] 103 % of control | [14] 98 % of control | [8] 106 % of control | [15] 101 % of control | [16] 105 % of control

Cc1ccc(S(=O)(=O)OCC(F)(F)C(F)(F)C(F)(F)COS(=O)(=O)c2ccc(C)cc2)cc1
inactive: dose: 75.0 mg/kg/injection, schedule: Q04DX002 (ip), vehicle: saline with Tween-80 88 % of control | dose: 150.0 mg/kg/injection, schedule: Q04DX002 (ip), vehicle: saline with Tween-80 91 % of control | dose: 300.0 mg/kg/injection, schedule: Q04DX002 (ip), vehicle: saline with Tween-80 95 % of control

Nc1ccc([N+](=O)[O-])c(-c2ccccc2)c1[N+](=O)[O-]
inactive: [3] 91 % of control | [7] 91 % of control | [10] 91 % of control

S=P(NNc1ccccc1)(NNc1ccccc1)c1ccc(Cl)cc1
inactive: dose: 100.0 mg/kg/injection, schedule: Q04DX002 (ip), vehicle: gum acacia 89 % of control | dose: 200.0 mg/kg/injection, schedule: Q04DX002 (ip), vehicle: gum acacia 89 % of control | dose: 400.0 mg/kg/injection, schedule: Q04DX002 (ip), vehicle: gum acacia 92 % of control

CCN(CC)C(=O)OCCCN(C)C
inactive: [2] 96 % of control | [12] 105 % of control | [13] 105 % of control

c1ccc(CC2NCCc3ccccc32)cc1 (stereo not given)
inactive: dose: 25.0 mg/kg/injection, schedule: Q04DX003 (ip), vehicle: acetone 102 % of control | dose: 25.0 mg/kg/injection, schedule: Q04DX003 (ip), vehicle: saline with Tween-80 99 % of control | dose: 50.0 mg/kg/injection, schedule: Q04DX003 (ip), vehicle: acetone 102 % of control | dose: 50.0 mg/kg/injection, schedule: Q04DX003 (ip), vehicle: saline with Tween-80 94 % of control | dose: 100.0 mg/kg/injection, schedule: Q01DX001 (ip), vehicle: acetone 89 % of control | dose: 100.0 mg/kg/injection, schedule: Q04DX003 (ip), vehicle: acetone 91 % of control | [6] 102 % of control

CN(C)Cc1ccc(Cl)cc1C(O)(c1ccccc1)c1ccccc1
inactive: [1] 101 % of control | [3] 104 % of control | [7] 93 % of control | [10] 93 % of control

O=C(O)C1=CCC=CC1
inactive: [6] 98 % of control | [9] 109 % of control | [11] 106 % of control

CC(C)N(CCC#N)C(=S)Nc1cccc2ccccc12
inactive: [4] 93 % of control | [14] 87 % of control | [15] 102 % of control

CC(C)(C)C(=O)OCn1cnc(=N)c2[nH]cnc21
inactive: [5] 100 % of control | [8] 108 % of control

c1ccc(CSn2cnc3nc4ccccc4c-3c2)cc1
inactive: dose: 100.0 mg/kg/injection, schedule: Q04DX003 (ip), vehicle: gum acacia 91 % of control | dose: 200.0 mg/kg/injection, schedule: Q04DX003 (ip), vehicle: gum acacia 91 % of control | dose: 400.0 mg/kg/injection, schedule: Q04DX003 (ip), vehicle: gum acacia 91 % of control

CC(C)N(C(=O)CSc1c(Cl)c(Cl)c(Cl)c(Cl)c1Cl)C(C)C
inactive: dose: 100.0 mg/kg/injection, schedule: Q04DX002 (ip), vehicle: other 107 % of control and 113 % of control | dose: 100.0 mg/kg/injection, schedule: Q04DX003 (ip), vehicle: other 89 % of control and 91 % of control | dose: 200.0 mg/kg/injection, schedule: Q04DX002 (ip), vehicle: other 95 % of control and 106 % of control | dose: 200.0 mg/kg/injection, schedule: Q04DX003 (ip), vehicle: other 96 % of control and 91 % of control | dose: 400.0 mg/kg/injection, schedule: Q04DX003 (ip), vehicle: other 94 % of control

COc1ccc(C2=NCCO2)cc1N
inactive: dose: 100.0 mg/kg/injection, schedule: Q01DX001 (ip), vehicle: Klucel (hydroxypropylcellulose) (HPC) 114 % of control | [5] 96 % of control | dose: 200.0 mg/kg/injection, schedule: Q01DX001 (ip), vehicle: Klucel (hydroxypropylcellulose) (HPC) 104 % of control | [8] 98 % of control | dose: 400.0 mg/kg/injection, schedule: Q01DX001 (ip), vehicle: Klucel (hydroxypropylcellulose) (HPC) 104 % of control | [16] 91 % of control

OCCSc1ncnc2nc[nH]c12
inactive: [6] 104 % of control | [9] 98 % of control | [11] 104 % of control
